This is an account of results in US20220259213A1, “PYRROLOPYRAZOLE DERIVATIVES, PREPARATION METHOD THEREOF AND APPLICATION THEREOF IN MEDICINE” (SHANGHAI MEDICILON INC., priority 2019, published 2022).

The assay has as its target T1, H+/K+ATPase (Oryctolagus cuniculus, UniProt P27112).
T1 construct: The stomach tissue of the rabbit was separated; from tissue; host or cells: rabbit stomach (fundus) mucosa; membrane pellet obtained by differential and Ficoll centrifugation
Nature of the assay: determination of compounds' inhibition of H+/K+ATPase enzyme activity (malachite green). The format is biochemical. The settings on record: enzyme extracted from rabbit stomach mucosa; 500 μM ATP; pH 6.5; 37° C.; OD 620 nm; read-out: IC50(μM) inhibition rate (IC50) of H+/K+ATPase enzyme activity. As for the experimental part:
Test example: determination of compounds' inhibition of H+/K+ATPase enzyme activity
The following experiment is used to determine the inhibitory effect of the compound of the present invention on the H+/K+ATPase enzyme activity.
Enzyme working solution: titrating the enzyme, diluting the enzyme with buffer solution 1, and taking 5 μl of the diluted solution into 50 μl reaction system.
ATP solution: 100 mM ATP was diluted to 5 mM with no K+buffer, and 5 μl of the diluted solution was added to the 50 μl reaction system, that is, the final concentration of ATP was 500 μM.
MLG color development liquid: 0.12% MLG, 7.5% ammonium molybdate, 11% Tween-20 was mixed as 100:25:2, and adding 15 μl of the mixture into each well during detection.
Buffer 1: 5 mM Tris-HCl pH 6.5, 5 mM magnesium chloride (magnesium chloride), 10 μM valinomycin (valinomycin).
Buffer 2: 50 mM Tris-HCl pH 6.5, 5mM magnesium chloride (magnesium chloride), 10 μM valinomycin (valinomycin), 20 mM KCl.
3.1. H^+/K^+ ATPase enzyme extraction
(1) The stomach tissue of the rabbit was separated, and the blood was washed with tap water, food residue.
(5) After homogenization, if there were larger tissue particles, they could be removed by centrifugation (600 g, 10 min), and then the supernatant was transfered to a clean centrifuge tube. After centrifugation at 20000 g for 30 minutes, then the supernatant was transferred to a clean centrifuge tube at 100000 g for 90 minutes, and the precipitate was collected.
(7) Resuspending the precipitate with homogenization buffer, blowing uniformly, and the protein concentration was measured by Bradford. Freezing in tubes at −80° C. for later use.
3.2. H+/K+ATPase activity experiment
(1) Adding 35 μl of reaction buffer to each experimental well, and then adding 35 μl of buffer 1.
(2) Adding 5 μl buffer 1 containing 10% DMSO to the whole enzyme and buffer well.
(3) Adding 5 μl of 10× compound working solution to the compound well and mixing well.
(4) Adding 5 μl of buffer 1 to the buffer well.
(5) Adding 5 μl of 10× enzyme working solution to the remaining wells, mixing and incubating at 37° C. for 30minutes.
(6) Adding 5 μl of 10×ATP working solution to all experimental wells, mixing and incubating at 37° C. for 20 min.
(7) Adding 15 μl MLG chromogenic solution to all experimental wells, and uniformly mixing and incubating at room temperature for 5-30 min.
(8) The reading number of 620 nm was detected by an M5 instrument.
The inhibition rate is calculated with the following formula:
Inhibition rate (IC50)=[OD (sample well)−OD (full enzyme well containing potassium chloride)]/[(OD (full enzyme well containing potassium chloride)−(OD (full enzyme well without potassium chloride)]×100%

T1 sequence (P27112 whole entry): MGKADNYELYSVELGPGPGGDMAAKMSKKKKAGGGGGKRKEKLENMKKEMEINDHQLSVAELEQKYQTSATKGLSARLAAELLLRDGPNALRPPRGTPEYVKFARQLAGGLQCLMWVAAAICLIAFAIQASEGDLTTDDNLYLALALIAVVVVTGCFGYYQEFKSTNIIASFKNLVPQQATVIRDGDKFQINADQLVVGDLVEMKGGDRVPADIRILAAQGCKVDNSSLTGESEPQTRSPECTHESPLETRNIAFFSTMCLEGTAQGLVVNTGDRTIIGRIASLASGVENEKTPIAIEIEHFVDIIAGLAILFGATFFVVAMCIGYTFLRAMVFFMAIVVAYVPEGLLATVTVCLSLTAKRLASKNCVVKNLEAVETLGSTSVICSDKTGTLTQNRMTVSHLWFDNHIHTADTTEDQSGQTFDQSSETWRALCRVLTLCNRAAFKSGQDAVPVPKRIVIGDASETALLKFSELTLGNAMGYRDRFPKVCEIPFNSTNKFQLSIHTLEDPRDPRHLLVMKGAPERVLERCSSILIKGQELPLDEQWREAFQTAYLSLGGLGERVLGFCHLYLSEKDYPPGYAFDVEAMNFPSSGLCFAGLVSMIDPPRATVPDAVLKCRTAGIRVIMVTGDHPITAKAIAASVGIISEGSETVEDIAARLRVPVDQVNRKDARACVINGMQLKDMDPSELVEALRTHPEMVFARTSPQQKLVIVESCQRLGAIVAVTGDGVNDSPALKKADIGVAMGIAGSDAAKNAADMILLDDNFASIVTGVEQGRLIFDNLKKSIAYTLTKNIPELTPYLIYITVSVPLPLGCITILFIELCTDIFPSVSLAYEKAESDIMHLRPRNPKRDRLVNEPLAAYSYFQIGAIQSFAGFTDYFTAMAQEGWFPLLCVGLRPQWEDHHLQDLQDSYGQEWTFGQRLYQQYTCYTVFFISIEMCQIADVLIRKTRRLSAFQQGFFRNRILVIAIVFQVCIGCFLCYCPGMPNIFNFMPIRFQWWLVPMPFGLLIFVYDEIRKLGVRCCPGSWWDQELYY
T1 sequence (P18597 whole entry partner): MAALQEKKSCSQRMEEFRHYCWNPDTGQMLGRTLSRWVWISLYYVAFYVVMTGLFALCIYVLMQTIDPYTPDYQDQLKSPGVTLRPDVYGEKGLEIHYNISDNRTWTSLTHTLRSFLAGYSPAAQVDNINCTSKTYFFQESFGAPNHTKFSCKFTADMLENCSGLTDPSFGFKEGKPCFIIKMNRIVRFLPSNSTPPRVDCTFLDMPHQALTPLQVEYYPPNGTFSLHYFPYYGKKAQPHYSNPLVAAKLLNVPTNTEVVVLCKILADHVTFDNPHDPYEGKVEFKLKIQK

In the case of `CN1Cc2nn(Cc3cccnc3)c(-c3ccc4c(c3)CCO4)c2C1` [Example 1, 3-(2,3-dihydrobenzofuran-5-methyl)-5-methyl-2-(pyridin-3-ylmethyl)-2,4,5,6-tetrahydropyrrole[3,4-c]pyrazole], the IC50 is 3.55 µM.
For `CN1Cc2nn(Cc3cccnc3)c(-c3ccc4occc4c3)c2C1` [Example 2, 3-(benzofuran-5-yl)-5-methyl-2-(pyridin-3-ylmethyl)-2,4,5,6-tetrahydropyrrole[3,4-c]pyrazole], the IC50 came out at 1.38 µM.
To `CN1Cc2nn(Cc3cccnc3)c(-c3ccc4[nH]cnc4c3)c2C1` [Example 3, (5-methyl-2-(pyridin-3-ylmethyl)-2,4,5,6-tetrahydropyrrole[3,4-c]pyrazol-3-yl)-1H-benzo[d]imidazole] belongs 24 µM.
For the compound `COc1ccc(Cn2nc3c(c2-c2ccccc2F)CN(C)C3)cn1` [Example 5, 3-(2-fluorobenzeneyl)-2-((6-methoxypyridin-3-yl)methyl)-5-methyl-2,4,5,6-tetrahydropyrrolo[3,4-c]pyrazole], the IC50 stood at 0.365 µM.
To `CN1Cc2nn(Cc3cccnc3)c(-c3ccccc3F)c2C1` [Example 4, (2-fluorophenyl)-5-methyl-2-(pyridin-3-ylmethyl)-2,4,5,6-tetrahydropyrrole[3,4-c]pyrazole] belongs 0.674 µM.
